This test concerns the target T1, Human P2X1 receptor (P2X1R) (Homo sapiens, UniProt P51575).
T1 construct: expressed in transfected cells; host or cells: HEK-293
T1 sequence (P51575 1-399): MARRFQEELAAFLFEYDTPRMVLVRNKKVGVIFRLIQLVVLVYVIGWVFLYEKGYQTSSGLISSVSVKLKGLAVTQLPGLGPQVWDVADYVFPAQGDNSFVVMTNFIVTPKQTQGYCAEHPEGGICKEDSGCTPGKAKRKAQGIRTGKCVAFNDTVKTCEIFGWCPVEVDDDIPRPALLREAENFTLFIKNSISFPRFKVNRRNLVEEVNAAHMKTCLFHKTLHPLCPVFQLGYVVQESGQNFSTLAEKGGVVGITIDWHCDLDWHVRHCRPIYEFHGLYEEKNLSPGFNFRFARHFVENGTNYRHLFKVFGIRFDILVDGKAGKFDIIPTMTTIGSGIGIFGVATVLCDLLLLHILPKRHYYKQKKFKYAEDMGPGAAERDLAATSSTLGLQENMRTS
Description: Receptor-mediated calcium entrance assay (Calcium Assay), P2X1R transfected HEK-293 cells. In kind it is cell-based. Conditions: ATP 20 μM stimulus; for remaining activity at 5 µM: HEK293, compound at 5 μM, read-out: Percentage of activity remains in the presence of the compound at 5 μM, P2X1R (Calcium Assay). An excerpt: Human P2X1 receptor (P2X1R) is a member of P2X family. […] Thus, the calcium assay was used. In the calcium assay, P2X receptor activation leads to opening of ion channels, which increases intracellular calcium concentration. The increased intracellular calcium concentration can be detected by a calcium indicator dye such as Fluo-4 or Fluo-8. Molecular Probes™ Fluo-4, AM (Cat. No. F14201 from Fisher Scientific) was used in the assay. The procedures were similar as described in the Yo-Pro-1 assay until day 4. The construct of P2X1R for transient transfection to HEK-293 cells was the courtesy from Dr. Richard J. Evans laboratory (J. Biol. Chem. 279:9043-9055). After transfection and expression, on day 4 cells were washed twice by Ca-HBSS (The composition (in mM) was NaCl 135, HEPES 10, D-glucose 10, KCl 5.4, CaCl2 2, and MgCl2 1, pH to 7.4 by NaOH) and incubated in dye loading solution (The solution contained 2.5 μM Fluo-4, 1 mM probenecid, and 1× PowerLoad (Cat. No. P10020 from Fisher Scientific) in Ca-HBSS) for 70 minutes at 37° C. Then the extracellular loading dye was washed away and cells were incubated at Ca-HBSS containing 1 mM probenecid for 30 minutes. Before the final steps, probenecid was washed away with Ca-HBSS. The assay was performed by adding 25 μl of Ca-HBSS followed by 25 μl of various test compounds. At this point, the base level of fluorescence was obtained through the microplate reading—the base microplate reading for this assay. At the end, the stimulus (ATP at 20 μM was the final concentration for P2X1R) was added to activate the P2X1R. Activation of P2X1R opened the channel to allow influx of calcium, which was represented by fluorescence increases that were measured by the microplate device with excitation at 475 nm and emission wavelength in the range of 500-550 nm. The data were analyzed the same way as described before: The result of each well was first normalized by its corresponding base microplate reading. Then, the negative control signal was subtracted from. In the negative control, the test compound and the stimulus were replaced by Ca-HBSS. […] An average of six highest values of the plate (AVG) were considered as 100% and the value of each well was divided by AVG and presented as the relative values in percentages.

We go through 53 molecules from US20220380310A1, “P2X7R ANTAGONISTS” (priority 2019, published 2022).

Structures can show the parent of a compound that is named as a salt.

Consider `O=C(CCc1ccccc1)N1CCN(S(=O)(=O)c2ccc(NC3CCCCC3)cc2)CC1` [#33], for which the remaining activity at 5 µM was found to be 44.9%. As to `O=S(=O)(c1ccccc1)C1CN(S(=O)(=O)c2ccc(N3CCOCC3)cc2)C1` [#11], the remaining activity at 5 µM is 44.3%. For `O=C(CCc1ccccc1)NC1CCCN(S(=O)(=O)c2ccc(N3CCC(F)(F)CC3)cc2)C1` (centres unmarked) [#46], the remaining activity at 5 µM came to 67.7%. As to `O=C(NCCc1ccccc1)C1CCN(S(=O)(=O)c2ccc(N3CCCC3)cc2)CC1` [#21], the remaining activity at 5 µM worked out at 50.2%. Consider `CN1CCN(c2ccc(S(=O)(=O)N3CCCC(NC(=O)CCc4ccccc4)C3)cc2)CC1` (centres unmarked) [#18], for which the remaining activity at 5 µM is 62.3%.

As to `O=C(CCc1ccccc1)NC1CCCN(S(=O)(=O)c2ccc(N3CCC(Oc4ccccc4)CC3)cc2)C1` (centres unmarked) [#38], the remaining activity at 5 µM turned out to be 43.8%. Same read-out and setting: next, `O=C(NCCc1ccccc1)C1CCCN(S(=O)(=O)c2ccc(N3CCOCC3)cc2)C1` (centres unmarked) [#24]: 66.3%. Consider `CC(C)N(C(C)C)S(=O)(=O)c1ccc(N2CCCC(NC(=O)CCc3ccccc3)C2)cc1` (centres unmarked) [#49], for which the remaining activity at 5 µM is 65.8%. Take `CC(C)COc1ccc(S(=O)(=O)N2CCCC(NC(=O)CCc3ccccc3)C2)cc1` (centres unmarked) [#6]: the remaining activity at 5 µM stood at 51%. As to `O=C(CCc1ccccc1)N1CCN(S(=O)(=O)c2ccc(F)cc2)CC1` [#30], the remaining activity at 5 µM came out at 70.1%. In the case of `O=C(CCc1ccccc1)NC1CCCN(S(=O)(=O)c2ccc(-n3cc(Br)cn3)cc2)C1` (centres unmarked) [#9], the remaining activity at 5 µM turned out to be 92.8%. Consider `O=C(CCc1ccccc1)NC1CCCN(S(=O)(=O)c2ccc(N3CCCC3)cc2)C1` (centres unmarked) [#13], for which the remaining activity at 5 µM came to 54.2%. With `CC(C)S(=O)(=O)c1ccc(N2CCCC(NC(=O)CCc3ccccc3)C2)cc1` (centres unmarked) [#7], the remaining activity at 5 µM came to 65.6%. Take `O=C(CCc1ccccc1)NC1CCCN(c2ccc(S(=O)(=O)N3CCCC3)cc2)C1` (centres unmarked) [#55]: the remaining activity at 5 µM was determined as 53.8%. On to `O=S(=O)(c1ccccc1)C1CN(S(=O)(=O)c2ccc(N3CCCCC3)cc2)C1` [#10], for which the remaining activity at 5 µM stood at 51.5%. As for `O=C(CCc1ccccc1)NC1CCCN(c2ccc(S(=O)(=O)NC3CCCCC3)cc2)C1` (centres unmarked) [#51], the remaining activity at 5 µM is 63.1%. On to `NS(=O)(=O)c1ccc(N2CCCC(NC(=O)CCc3ccccc3)C2)cc1` (centres unmarked) [#53], for which the remaining activity at 5 µM amounted to 66.2%.

For the molecule `CC(C)(C)OC(=O)N1CCN(c2ccc(S(=O)(=O)N3CCN(C(=O)CCc4ccccc4)CC3)cc2)CC1` [#31], the remaining activity at 5 µM turned out to be 43.9%. For `CC1CCN(c2ccc(S(=O)(=O)N3CCCC(NC(=O)CCc4ccccc4)C3)cc2)CC1` (centres unmarked) [#40], the remaining activity at 5 µM was found to be 39%. `CC(C)(C)OC(=O)N1CCN(c2ccc(S(=O)(=O)N3CCC(C(=O)NCCc4ccccc4)CC3)cc2)CC1` [#22]: the remaining activity at 5 µM came out at 59.2%. `O=C(CCc1ccccc1)NC1CCCN(S(=O)(=O)c2ccc(F)cc2)C1` (centres unmarked) [#3]: the remaining activity at 5 µM is 33.3%. On the same count and under the same terms, next, `O=C(CCc1ccccc1)NC1CCCN(S(=O)(=O)c2ccc(OCc3ccccc3)cc2)C1` (centres unmarked) [#4]: 43.7%; `CC(C)(C)OC(=O)N1CCC(C2CCN(c3ccc(S(=O)(=O)N4CCCC(NC(=O)CCc5ccccc5)C4)cc3)CC2)CC1` (centres unmarked) [#41]: 46.7%; `CCCCNc1ccc(S(=O)(=O)N2CCC(C(=O)O)CC2)cc1` [#27]: 50.8%. Regarding `CC1CCCN(c2ccc(S(=O)(=O)N3CCCC(NC(=O)CCc4ccccc4)C3)cc2)C1` (centres unmarked) [#44], the remaining activity at 5 µM was 40.5%. On to `O=C(CCc1ccccc1)N1CCN(S(=O)(=O)c2ccc(N3CCCCC3)cc2)CC1` [#34], for which the remaining activity at 5 µM amounted to 59.3%. In the case of `CN(C)c1ccc(S(=O)(=O)N2CCCC(NC(=O)CCc3ccccc3)C2)cc1` (centres unmarked) [#14], the remaining activity at 5 µM came out at 63.9%. On to `COCCOc1ccc(S(=O)(=O)N2CCCC(NC(=O)CCc3ccccc3)C2)cc1` (centres unmarked) [#17], for which the remaining activity at 5 µM came to 60.9%.

For `O=C(NCCc1ccccc1)C1CCN(S(=O)(=O)c2ccc(N3CCOCC3)cc2)CC1` [#23], the remaining activity at 5 µM came to 75.5%. Take `CCCCNc1ccc(S(=O)(=O)N2CCCC(NC(=O)CCc3ccccc3)C2)cc1` (centres unmarked) [#15]: the remaining activity at 5 µM was 70.1%.

As to `O=C(CCc1ccccc1)NC1CCCN(S(=O)(=O)c2ccc(N3CCOCC3)cc2)C1` (centres unmarked) [#12], the remaining activity at 5 µM was 52.8%.

For `O=C(CCc1ccccc1)NC1CCCN(S(=O)(=O)c2ccc(N3CCC(C(F)(F)F)CC3)cc2)C1` (centres unmarked) [#42], the remaining activity at 5 µM is 66.3%. On the same count and under the same terms, next, `O=C(CCc1ccccc1)N1CCN(S(=O)(=O)c2ccc(N3CCOCC3)cc2)CC1` [#32]: 46.7%; `CC1CCCCN1c1ccc(S(=O)(=O)N2CCCC(NC(=O)CCc3ccccc3)C2)cc1` (centres unmarked) [#47]: 50.1%; `O=C(NCCc1ccccc1)C1CCN(S(=O)(=O)c2ccc(N3CCCCC3)cc2)CC1` [#20]: 75.4%.

On to `CCOc1ccc(S(=O)(=O)N2CCCC(NC(=O)CCc3ccccc3)C2)cc1` (centres unmarked) [#37], for which the remaining activity at 5 µM was found to be 55.4%. The same measure, in the same setting: next, `CC(C)OC1CCN(c2ccc(S(=O)(=O)N3CCCC(NC(=O)CCc4ccccc4)C3)cc2)CC1` (centres unmarked) [#39]: 74.5%; `O=C(CCc1ccccc1)N1CCN(S(=O)(=O)c2ccc(N3CCCC3)cc2)CC1` [#35]: 56.3%.

With `O=C(CCc1ccccc1)NC1CCCN(c2ccc(S(=O)(=O)Nc3ccccc3)cc2)C1` (centres unmarked) [#50], the remaining activity at 5 µM came out at 47.8%. As for `O=C(CCc1ccccc1)NC1CCCN(S(=O)(=O)c2ccc(F)c(Cl)c2)C1` (centres unmarked) [#43], the remaining activity at 5 µM amounted to 57.1%. As to `O=C(CCc1ccccc1)N1CCNCC1` [#29, hydrochloride], the remaining activity at 5 µM worked out at 62.5%. With `O=C(CCc1ccccc1)NC1CCCN(c2ccc(S(=O)(=O)NCc3ccco3)cc2)C1` (centres unmarked) [#52], the remaining activity at 5 µM worked out at 63.4%. Take `COc1ccc(S(=O)(=O)N2CCCC(NC(=O)CCc3ccccc3)C2)cc1` (centres unmarked) [#2]: the remaining activity at 5 µM is 39.1%. On to `CC(C)(C)OC(=O)N1CCN(c2ccc(S(=O)(=O)N3CCCC(C(=O)NCCc4ccccc4)C3)cc2)CC1` (centres unmarked) [#36], for which the remaining activity at 5 µM was found to be 49%. As to `Cc1nc(N=Nc2ccc(S(=O)(=O)[O-])cc2S(=O)(=O)[O-])c(COP(=O)([O-])[O-])c(C=O)c1O.[Na+].[Na+].[Na+].[Na+]` [PPADS, Pyridoxalphosphate-6-azophenyl-2′,4′-disulfonic acid tetrasodium, reference compound], the “Percentage of activity remains in the presence of the compound at 5 μM, P2X1R (Calcium Assay)” value stood at 26.7%. For the molecule `NC(=O)c1cc(Br)cc(N2CCOCC2)c1` [#28], the remaining activity at 5 µM worked out at 62.6%. As to `O=C(CCc1ccccc1)NC1CCCN(c2ccc(S(=O)(=O)N3CCCCC3)cc2)C1` (centres unmarked) [#54], the remaining activity at 5 µM was determined as 48.4%. Consider `O=C(CCc1ccccc1)NC1CCCN(S(=O)(=O)c2ccc(N3CCCCC3)cc2)C1` (centres unmarked) [#5], for which the remaining activity at 5 µM is 59.6%.

On to `CS(=O)(=O)c1ccc(N2CCCC(NC(=O)CCc3ccccc3)C2)cc1` (centres unmarked) [#1], for which the remaining activity at 5 µM was 56.5%. With `O=C(NCCc1ccccc1)C1CCCN(S(=O)(=O)c2ccc(N3CCCC3)cc2)C1` (centres unmarked) [#25], the remaining activity at 5 µM was found to be 66.1%. As for `O=C(CCc1ccccc1)NC1CCCN(S(=O)(=O)c2ccc(N3CCCCC3)c(Cl)c2)C1` (centres unmarked) [#45], the remaining activity at 5 µM is 52%. As to `O=C1CCC(N2Cc3c(NC(=O)CCc4ccccc4)cccc3C2=O)C(=O)N1` (centres unmarked) [#16], the remaining activity at 5 µM turned out to be 51.5%. The same measure, in the same setting: next, `O=C(CCc1ccccc1)NC1CCCN(S(=O)(=O)Cc2ccc(Br)cc2)C1` (centres unmarked) [#8]: 67%.
